These results are taken from patent US4430342A, “N-Acyl-3-[4-(benzoylalkyl)piperazin-1-yl]-sydnonimine compound, process for prodction thereof, and use thereof” (Hidaka; Hiroyoshi, priority 1981, dated 1984).

Converted amounts (≈) assume the structure as drawn. Where a name gives a salt, the structure may show the parent alone. Read-outs that look alike come from different tables or passages of the source.

Data set [1] in a line: water solubility of the salts. It counts as physicochemical.
The test system of the next data set is amygdaloid nucleus. In words: local cerebral blood flow, amygdaloid nucleus (hydrogen gas clearance method). It counts as in vivo, rabbit. To be noted: 0.5 mg/kg i.v.; until 1 hour after administration; based on blood flow before administration. The method, then:
(a) Activity on the hippocampus and amygdaloid nucleus (by the hydrogen gas clearance method) Rabbits having a body weight of about 3 kg, five per group, were used. A tracheal cannula was inserted into each rabbit under sodium pentobarbital anesthesia, and under artificial respiration, gallamine triethiodide was intravenously administered in a dose of 2 mg/kg to immobilize it. The animal was then fixed to a brain stereotaxic apparatus (Todai Noken type). Gallamine triethiodide was also intramuscularly administered in a dose of 3 mg/kg every one hour.
The local cerebral blood flow was measured by the hydrogen gas clearance method (UH meter, PHG-201, manufactured by Unique Medical Co., Ltd.). Platinum electrodes having a diameter of 300 μm and coated with an epoxy resin were inserted in the hippocampus (P:4, L:5, H:+5) and the amygdaloid nucleus (A:2, L:6, H:-6) in accordance with the brain atlas of Sawyer et al. An indifferent electrode was placed under the skin of the head and fixed there. […] The resulting curve was plotted semilogarithmically, and the half-time period (T 1/2) was determined by the initial slope method. The blood flow was calculated from the following equation.
The blood flow was measured every thirty minutes. […]

The test system of data set [2] is extracted heart of a guinea pig. In words: coronary blood flow, Langendorf's method, extracted heart. The settings on record: 0.1 ml of 10^-4 g/ml solution injected. The method, then:
The increase or decrease of the coronary blood flow was examined by the Langendorf's method using the extracted heart of a guinea pig. […] On the other hand, when 0.1 ml of morsydmine (10^-4 g/ml solution) was injected, no increase in the coronary blood flow was observed.

Another data set concerns cerebral cortex. Kind of data set: blood flow in the cerebral cortex (cross thermocouple method). To be noted: 0.5 mg/kg via retroauricular vein. It counts as in vivo, rabbit. The method, then:
Male rabbits having a body weight of about 3 kg, five per group, were used. Under sodium pentobarbital anesthesia, a tracheal cannula was inserted into each rabbits, and under artificial respiration, 2 mg of gallamine triethiodide was intravenously injected to immobilize the animals. The animals were each fixed to a brain stereotaxic apparatus (Todai Noken type). An element of the double needle type (WN-301, manufactured by Unique Medical Co.) was inserted into the frontal contex through a hole provided by a dental drill, and variations in potential were recorded. After the blood flow was stabilized, the test drug and a control drug were each administered through a cannula inserted into the retroauricular vein of the right ear. The percent increase in the blood flow was calculated by taking the blood flow at death as 0 and the blood flow before drug administration as 100%. When the compound A (0.5 mg/kg) was administered as the test drug, the blood flow increased by 10 to 20%. But when the control drug, morsydmine, (0.5 mg/kg) was administered, no increase in the blood flow was noted.

The test system of data set [3] is human platelet aggregation. Kind of data set: collagen-induced human platelet aggregation inhibiting activity, in vitro. It counts as cell-based. The settings on record: human platelets, read-out: Platelet aggregation inhibiting activity (50% inhibition). The source says:
(§1) Table 1 summarizes the results of in vitro tests in which the human platelet aggregation inyibitory activity of the 3-[4-(benzoylalkyl)piperazin-1-yl]sydnonimines of formula (2) and their relaxing activity on the extracted mesenteric artery of a rabbit were examined.
(§2) The mesenteric artery relaxing activity is shown by the […] (μM) of a drug required to induce 50% of the maximum relaxation, and the platelet aggregation inhibiting activity, by the concentration (μM) of a drug required to inhibit collagen-induced platelet aggregation to an extent of 50%.

Data set [4] has as its system extracted mesenteric artery of a rabbit. Kind of data set: mesenteric artery relaxing activity, in vitro (extracted artery). The settings on record: Oryctolagus cuniculus, read-out: Mesenteric artery relaxing activity (50% of the maximum relaxation).
Source text: as §1, §2

The nature of data set [5]: acute toxicity in male dd-strain mice. The settings on record: mouse, in vivo. The method, then: The acute toxicity of the in vivo active type of this typical compound as a prodrug was tested by using male dd-strain mice (body weight 16 to 20 g).
The nature of data set [6]: solubility in water, dilute hydrochloric acid and Carmody's buffer by absorbance at 317 nm. It counts as physicochemical. The settings on record: 25° C. The method, then: The solubility of the N-ethoxycarbonyl-3-[4-(4-benzoylbutyl)piperazin-1-yl]sydnonimine obtained in Example 1 in water dilute hydrochloric acid and the Carmody's buffer was measured by the absorbance of the solution at 317 nm.

As for `CCOC(=O)[N-]c1c[n+](N2CCN(CCCCC(=O)c3ccccc3)CC2)no1` [Nitrate, N-ethoxycarbonyl-3-[4-(4-benzoylbutyl)-piperazin-1-yl]sydnonimine], the Solubility in water in data set [1] amounted to 0.43%.

For the compound `CCOC(=O)[N-]c1c[n+](N2CCOCC2)no1` [morsydmine], the “increase of local cerebral blood flow at the amygdaloid nucleus” value with amygdaloid nucleus was “about 15%”. The “coronary blood flow, result in words” value in data set [2] is “no increase”. Further, the “blood flow in the cerebral cortex, result in words” value in the data set on cerebral cortex is reported as “no increase”.

As for `CCOC(=O)[N-]c1c[n+](N2CCN(CCCCC(=O)c3ccccc3)CC2)no1` [Maleate, N-ethoxycarbonyl-3-[4-(4-benzoylbutyl)-piperazin-1-yl]sydnonimine], the Solubility in water in data set [1] was 0.94%.

In the case of `[NH-]c1c[n+](N2CCN(CCCCCCC(=O)c3ccccc3)CC2)no1` [R = H, n = 5], the IC50 in data set [3] worked out at 940 nM. Moreover, the EC50 in data set [4] came to 120 nM.

Turning to `[NH-]c1c[n+](N2CCN(CC(=O)c3ccccc3)CC2)no1` [R = H, n = 0, 3-[4-(benzoylmethyl)piperazin-1-yl]sydnonimine dihydrochloride], the IC50 in data set [3] came to 140 nM. For the same compound, the EC50 in data set [4] was 160 nM.

Turning to `CC(C)CC(CCCN1CCN([n+]2cc([NH-])on2)CC1)C(=O)c1ccccc1` (stereo not shown) [R = iso-C4 H9, n = 3, 3-[4-(benzoyl-6-methylheptyl)piperazin-1-yl]sydnonimine dihydrochloride], in data set [3], the IC50 stood at 11000 nM.

In the case of `[NH-]c1c[n+](N2CCN(CCCCCCCCC(=O)c3ccccc3)CC2)no1` [R = H, n = 7, 3-[4-(8-benzoyloctyl)piperazin-1-yl]sydnonimine dihydrochloride], the IC50 in data set [3] was 28 nM. Also, the EC50 in data set [4] is 58 nM.

Take `CCOC(=O)[N-]c1c[n+](N2CCN(CCCCC(=O)c3ccccc3)CC2)no1` [Compound A]: the LD50 (commonly the dose at which mortality reaches 50%) in data set [5] (intravenous administration) turned out to be 91 mg/kg; in data set [5] (oral administration) it was 750 mg/kg; in data set [5] (sc, subcutaneous administration), 350 mg/kg. The activation at 100 µg/mL in data set [2] (Cavia porcellus, read-out: increase in the coronary blood flow) is 14%.

Turning to `[NH-]c1c[n+](N2CCN(CCCCCC(=O)c3ccccc3)CC2)no1` [R = H, n = 4], the IC50 in data set [3] worked out at 6300 nM. Moreover, the EC50 in data set [4] stood at 3000 nM.

On to `CCOC(=O)[N-]c1c[n+](N2CCN(CCCCC(=O)c3ccccc3)CC2)no1` [Hydrochloride, N-ethoxycarbonyl-3-[4-(4-benzoylbutyl)-piperazin-1-yl]sydnonimine], for which the Solubility in water in data set [1] is 0.89%.

Take `CCOC(=O)[N-]c1c[n+](N2CCN(CCCCC(=O)c3ccccc3)CC2)no1` [Compound A, N-carboethoxy-3-[4-(4-benzoylbutyl)piperazin-1-yl]sydnonimine]: the solubility (usually the concentration that dissolves in the medium under given conditions) in data set [6] (0.001 n hydrochloric acid, 0.001 N (pH 3), read-out: Solubility in dilute hydrochloric acid) was 2300 µg/mL (≈ 5.73 mM); in data set [6] (0.01 n hydrochloric acid, 0.01 N (pH 2), read-out: Solubility in dilute hydrochloric acid) it was 6300 µg/mL (≈ 15.7 mM); in data set [6] (0.1 n hydrochloric acid, 0.1 N (pH 1), read-out: Solubility in dilute hydrochloric acid) it was 10400 µg/mL (≈ 25.9 mM); in data set [6] (carmody's buffer, pH 2, read-out: Solubility in Carmody's buffer) it was 15600 µg/mL (≈ 38.9 mM); in data set [6] (carmody's buffer, pH 3, read-out: Solubility in Carmody's buffer), 9300 µg/mL (≈ 23.2 mM); in data set [6] (carmody's buffer, pH 4, read-out: Solubility in Carmody's buffer), 4400 µg/mL (≈ 11 mM). The solubility in data set [6] (carmody's buffer, pH 5, read-out: Solubility in Carmody's buffer) was determined as 1000 µg/mL (≈ 2.49 mM); in data set [6] (carmody's buffer, pH 6, read-out: Solubility in Carmody's buffer), 400 µg/mL (≈ 0.996 mM); in data set [6] (carmody's buffer, pH 7, read-out: Solubility in Carmody's buffer), 100 µg/mL (≈ 0.249 mM); in data set [6] (water, read-out: Solubility in water), 10 µg/mL (≈ 0.0249 mM).

Regarding `[NH-]c1c[n+](N2CCN(CCCCC(=O)c3ccccc3)CC2)no1` [R = H, n = 3, 3-[4-(4-benzoylbutyl)piperazin-1-yl]sydnonimine dihydrochloride], the IC50 in data set [3] was found to be 3400 nM. In addition, in data set [4], the EC50 came to 200 nM.

`CCOC(=O)[N-]c1c[n+](N2CCN(CCCCC(=O)c3ccccc3)CC2)no1` [Oxalate, N-ethoxycarbonyl-3-[4-(4-benzoylbutyl)-piperazin-1-yl]sydnonimine]: the Solubility in water in data set [1] was determined as 0.46%.

Turning to `[NH-]c1c[n+](N2CCN(CCCC(=O)c3ccccc3)CC2)no1` [R = H, n = 2], in data set [3], the IC50 was 5400 nM. Besides, the EC50 in data set [4] turned out to be 2300 nM.
